Laboratory results from patent US20170360791A1, “PHARMACEUTICAL COMPOSITIONS FOR INCREASING THE BIOAVAILABILITY OF POORLY SOLUBLE DRUGS” (ASTEX PHARMACEUTICALS, INC., priority 2014, published 2017).
≈ marks a conversion by molar mass, not a printed value. Read-outs that look alike come from different tables or passages of the source.

Assays:
[1] = assay type: physicochemical; conditions: room temperature, >24 hours
Method: The suspensions were filtered through 0.2 or 0.45 microm filters prior to HPLC analysis. Some filtrates were diluted with MeOH prior to the HPLC analysis.

[2] = MP470FB content in the supernatant of Soluplus/SIF mixtures at various time-points; assay type: physicochemical; set-up: MP470FB content in the supernatant: unit not given here; conditions: 37° C.

## S=C(NCc1ccc2c(c1)OCO2)N1CCN(c2ncnc3c2oc2ccccc23)CC1 [MP470 FB, amuvatinib]
[1]; TPGS, aqueous with cosolvent or surfactant or cyclodextrin, thermodynamic from solid, solvent TPGS, read-out: Solubility
  solubility: 10000 µg/mL (≈ 22.3 mM)
[1]; Tween 80, aqueous with cosolvent or surfactant or cyclodextrin, thermodynamic from solid, solvent Tween 80, read-out: Solubility
  solubility: 6600 µg/mL (≈ 14.7 mM)
[1]; acetic acid, organic solvent or mixture, thermodynamic from solid, solvent Acetic acid, read-out: Solubility
  solubility: 2900 µg/mL (≈ 6.48 mM)
[1]; anisole, organic solvent or mixture, thermodynamic from solid, solvent Anisole, read-out: Solubility
  solubility: 1800 µg/mL (≈ 4.02 mM)
[1]; ethanol, organic solvent or mixture, thermodynamic from solid, solvent Ethanol, read-out: Solubility
  solubility: 300 µg/mL (≈ 0.67 mM)
[1]; ethyl cinnamate, organic solvent or mixture, thermodynamic from solid, solvent Ethyl cinnamate, read-out: Solubility
  solubility: 3900 µg/mL (≈ 8.71 mM)
[1]; linoleic acid, oil or lipid, thermodynamic from solid, solvent Linoleic acid, read-out: Solubility
  solubility: 20 µg/mL (≈ 0.0447 mM)
[1]; oleic acid, oil or lipid, thermodynamic from solid, solvent Oleic acid, read-out: Solubility
  solubility: 100 µg/mL (≈ 0.223 mM)
[1]; propylene carbonate, organic solvent or mixture, thermodynamic from solid, solvent Propylene carbonate, read-out: Solubility
  solubility: 2900 µg/mL (≈ 6.48 mM)
[1]; solvent Acetone
  solubility: 2600 µg/mL (≈ 5.81 mM)
[1]; solvent Benzyl alcohol
  solubility: 63000 µg/mL (≈ 141 mM)
[1]; solvent DMA
  solubility: >240000 µg/mL
[1]; solvent DMA, listed as MP470 free base
  solubility: > 240000 µg/mL
[1]; solvent DMSO
  solubility: ~130000 µg/mL (≈ 290 mM)
[1]; solvent Glycerin
  solubility: 400 µg/mL (≈ 0.894 mM)
[1]; solvent Labrasol
  solubility: 11000 µg/mL (≈ 24.6 mM)
[1]; solvent Methanol
  solubility: 500 µg/mL (≈ 1.12 mM)
[1]; solvent NMP
  solubility: 300000 to 360000 µg/mL
[1]; solvent NMP, listed as MP470 free base
  solubility: ~300000 µg/mL (≈ 670 mM)
[1]; solvent PEG400
  solubility: 14000 µg/mL (≈ 31.3 mM)
[1]; solvent Phosal 50 PG
  solubility: 500 µg/mL (≈ 1.12 mM)
[1]; solvent Propylene glycol
  solubility: 400 µg/mL (≈ 0.894 mM)
[1]; solvent Tween 20
  solubility: 8000 µg/mL (≈ 17.9 mM)
[1]; triacetin, organic solvent or mixture, thermodynamic from solid, solvent Triacetin, read-out: Solubility
  solubility: 1000 µg/mL (≈ 2.23 mM)
[2]; 0.2% Soluplus/SIF, MP470FB 0.2 mg/mL, 30 min
  MP470FB content in the supernatant: 0.082
[2]; 0.2% Soluplus/SIF, MP470FB 0.2 mg/mL, 2 hr
  MP470FB content in the supernatant: 0.084
[2]; 0.2% Soluplus/SIF, MP470FB 0.2 mg/mL, 4 hr
  MP470FB content in the supernatant: 0.089
[2]; 0.2% Soluplus/SIF, MP470FB 0.2 mg/mL, 6 hr
  MP470FB content in the supernatant: 0.087
[2]; 0.2% Soluplus/SIF, MP470FB 0.2 mg/mL, 24 hr
  MP470FB content in the supernatant: 0.107
[2]; 0.2% Soluplus/SIF, MP470FB 0.6 mg/mL, 30 min
  MP470FB content in the supernatant: 0.126
[2]; 0.2% Soluplus/SIF, MP470FB 0.6 mg/mL, 2 hr
  MP470FB content in the supernatant: 0.136
[2]; 0.2% Soluplus/SIF, MP470FB 0.6 mg/mL, 4 hr
  MP470FB content in the supernatant: 0.152
[2]; 0.2% Soluplus/SIF, MP470FB 0.6 mg/mL, 6 hr
  MP470FB content in the supernatant: 0.154
[2]; 0.2% Soluplus/SIF, MP470FB 0.6 mg/mL, 24 hr
  MP470FB content in the supernatant: 0.178
[2]; 0.5% Soluplus/SIF, MP470FB 0.2 mg/mL, 30 min
  MP470FB content in the supernatant: 0.092
[2]; 0.5% Soluplus/SIF, MP470FB 0.2 mg/mL, 2 hr
  MP470FB content in the supernatant: 0.097
[2]; 0.5% Soluplus/SIF, MP470FB 0.2 mg/mL, 4 hr
  MP470FB content in the supernatant: 0.103
[2]; 0.5% Soluplus/SIF, MP470FB 0.2 mg/mL, 6 hr
  MP470FB content in the supernatant: 0.107
[2]; 0.5% Soluplus/SIF, MP470FB 0.2 mg/mL, 24 hr
  MP470FB content in the supernatant: 0.127
[2]; 0.5% Soluplus/SIF, MP470FB 0.6 mg/mL, 30 min
  MP470FB content in the supernatant: 0.155
[2]; 0.5% Soluplus/SIF, MP470FB 0.6 mg/mL, 2 hr
  MP470FB content in the supernatant: 0.190
[2]; 0.5% Soluplus/SIF, MP470FB 0.6 mg/mL, 4 hr
  MP470FB content in the supernatant: 0.228
[2]; 0.5% Soluplus/SIF, MP470FB 0.6 mg/mL, 6 hr
  MP470FB content in the supernatant: 0.235
[2]; 0.5% Soluplus/SIF, MP470FB 0.6 mg/mL, 24 hr
  MP470FB content in the supernatant: 0.315
[2]; 1.0% Soluplus/SIF, MP470FB 0.2 mg/mL, 30 min
  MP470FB content in the supernatant: 0.096
[2]; 1.0% Soluplus/SIF, MP470FB 0.2 mg/mL, 2 hr
  MP470FB content in the supernatant: 0.104
[2]; 1.0% Soluplus/SIF, MP470FB 0.2 mg/mL, 4 hr
  MP470FB content in the supernatant: 0.115
[2]; 1.0% Soluplus/SIF, MP470FB 0.2 mg/mL, 6 hr
  MP470FB content in the supernatant: 0.118
[2]; 1.0% Soluplus/SIF, MP470FB 0.2 mg/mL, 24 hr
  MP470FB content in the supernatant: 0.135
[2]; 1.0% Soluplus/SIF, MP470FB 0.6 mg/mL, 30 min
  MP470FB content in the supernatant: 0.179
[2]; 1.0% Soluplus/SIF, MP470FB 0.6 mg/mL, 2 hr
  MP470FB content in the supernatant: 0.223
[2]; 1.0% Soluplus/SIF, MP470FB 0.6 mg/mL, 4 hr
  MP470FB content in the supernatant: 0.277
[2]; 1.0% Soluplus/SIF, MP470FB 0.6 mg/mL, 6 hr
  MP470FB content in the supernatant: 0.318
[2]; 1.0% Soluplus/SIF, MP470FB 0.6 mg/mL, 24 hr
  MP470FB content in the supernatant: 0.428
[2]; 2.0% Soluplus/SIF, MP470FB 0.2 mg/mL, 30 min
  MP470FB content in the supernatant: 0.101
[2]; 2.0% Soluplus/SIF, MP470FB 0.2 mg/mL, 2 hr
  MP470FB content in the supernatant: 0.110
[2]; 2.0% Soluplus/SIF, MP470FB 0.2 mg/mL, 4 hr
  MP470FB content in the supernatant: 0.126
[2]; 2.0% Soluplus/SIF, MP470FB 0.2 mg/mL, 6 hr
  MP470FB content in the supernatant: 0.138
[2]; 2.0% Soluplus/SIF, MP470FB 0.2 mg/mL, 24 hr
  MP470FB content in the supernatant: 0.170
[2]; 2.0% Soluplus/SIF, MP470FB 0.6 mg/mL, 30 min
  MP470FB content in the supernatant: 0.206
[2]; 2.0% Soluplus/SIF, MP470FB 0.6 mg/mL, 2 hr
  MP470FB content in the supernatant: 0.290
[2]; 2.0% Soluplus/SIF, MP470FB 0.6 mg/mL, 4 hr
  MP470FB content in the supernatant: 0.368
[2]; 2.0% Soluplus/SIF, MP470FB 0.6 mg/mL, 6 hr
  MP470FB content in the supernatant: 0.409
[2]; 2.0% Soluplus/SIF, MP470FB 0.6 mg/mL, 24 hr
  MP470FB content in the supernatant: 0.469
[2]; 5.0% Soluplus/SIF, MP470FB 0.2 mg/mL, 30 min
  MP470FB content in the supernatant: 0.114
[2]; 5.0% Soluplus/SIF, MP470FB 0.2 mg/mL, 2 hr
  MP470FB content in the supernatant: 0.124
[2]; 5.0% Soluplus/SIF, MP470FB 0.2 mg/mL, 4 hr
  MP470FB content in the supernatant: 0.129
[2]; 5.0% Soluplus/SIF, MP470FB 0.2 mg/mL, 6 hr
  MP470FB content in the supernatant: 0.137
[2]; 5.0% Soluplus/SIF, MP470FB 0.2 mg/mL, 24 hr
  MP470FB content in the supernatant: 0.144
[2]; 5.0% Soluplus/SIF, MP470FB 0.6 mg/mL, 30 min
  MP470FB content in the supernatant: 0.244
[2]; 5.0% Soluplus/SIF, MP470FB 0.6 mg/mL, 2 hr
  MP470FB content in the supernatant: 0.342
[2]; 5.0% Soluplus/SIF, MP470FB 0.6 mg/mL, 4 hr
  MP470FB content in the supernatant: 0.374
[2]; 5.0% Soluplus/SIF, MP470FB 0.6 mg/mL, 6 hr
  MP470FB content in the supernatant: 0.411
[2]; 5.0% Soluplus/SIF, MP470FB 0.6 mg/mL, 24 hr
  MP470FB content in the supernatant: 0.467
[2]; Control (SIF), MP470FB 0.2 mg/mL, 30 min
  MP470FB content in the supernatant: 0.002
[2]; Control (SIF), MP470FB 0.2 mg/mL, 2 hr
  MP470FB content in the supernatant: 0
[2]; Control (SIF), MP470FB 0.2 mg/mL, 4 hr
  MP470FB content in the supernatant: 0
[2]; Control (SIF), MP470FB 0.2 mg/mL, 6 hr
  MP470FB content in the supernatant: 0
[2]; Control (SIF), MP470FB 0.2 mg/mL, 24 hr
  MP470FB content in the supernatant: 0
[2]; Control (SIF), MP470FB 0.6 mg/mL, 30 min
  MP470FB content in the supernatant: 0.002
[2]; Control (SIF), MP470FB 0.6 mg/mL, 2 hr
  MP470FB content in the supernatant: 0
[2]; Control (SIF), MP470FB 0.6 mg/mL, 4 hr
  MP470FB content in the supernatant: 0
[2]; Control (SIF), MP470FB 0.6 mg/mL, 6 hr
  MP470FB content in the supernatant: 0
[2]; Control (SIF), MP470FB 0.6 mg/mL, 24 hr
  MP470FB content in the supernatant: 0
[2]; Soluplus/SIF
  time MP470 is kept stable in solution by interaction with Soluplus: at least 24 hours
